Assay results: patent publication US7045626B2, “Quinoline derivatives, process for preparing them and use for the treatment of diseases mediated by s-CD23” (SmithKline Beecham p.l.c., priority 2001, dated 2006)

Tests used:
[1] = test system: release of soluble CD23 from RPMI 8866 cell plasma membranes; assay: RPMI 8866 cell membrane CD23 cleavage activity assay; assay type: biochemical, human; conditions: RPMI 8866 plasma membranes, 37° C., sCD23 by EIA; read-out: IC50, inhibition of production of sCD23
Description: Procedure 1: The ability of test compounds to inhibit the release of soluble CD23 was investigated by use of the following procedure.
RPMI 8866 Cell Membrane CD23 Cleavage Activity Assay:
Plasma membranes from RPMI 8866 cells, a human Epstein-Barr virus transformed B-cell line (Sarfati et al., Immunology 60 [1987] 539–547) expressing high levels of CD23 are purified using an aqueous extraction method. Cells resuspended in homogenization buffer (20 mM HEPES pH 7.4, 150 mM NaCl, 1.5 mM MgCl2, 1 mM DTT) are broken by N2 cavitation in a Parr bomb and the plasma membrane fraction mixed with other membranes is recovered by centrifugation at 10,000×g. […]
The fractionated membranes are incubated at 37° C. for times up to 4 hrs to produce fragments of CD23 which are separated from the membrane by filtration in 0.2 micron Durapore filter plates (Millipore) after quenching the assay with a non-selecitve MMP inhibitor, e.g. 5 uM Preparation 1 from WO 95/31457 ([4-(N-Hydroxyamino)-2-(R)-isobutyl-3-(S)-(2-thiophenethiomethyl)succinyl]-(S)-phenylalanine-N-methylamide sodium salt, prepared according to the procedure described in Example 11 of WO 90/05719). sCD23 released from the membrane is determined using the EIA kit from The Binding Site (Birmingham, UK) or a similar one utilising MHM6 anti-CD23 mAb [Rowe et al., Int. […]

[2] = target: T1, human recombinant collagenase (Homo sapiens, UniProt P03956); assay: Collagenase inhibition assay; assay type: biochemical; conditions: 37° C., 18 h, 3H type 1 bovine collagen; read-out: IC50, collagenase inhibition (procedure 2)
T1 construct: made in house; host or cells: E. coli
T1 sequence (P03956 100-469): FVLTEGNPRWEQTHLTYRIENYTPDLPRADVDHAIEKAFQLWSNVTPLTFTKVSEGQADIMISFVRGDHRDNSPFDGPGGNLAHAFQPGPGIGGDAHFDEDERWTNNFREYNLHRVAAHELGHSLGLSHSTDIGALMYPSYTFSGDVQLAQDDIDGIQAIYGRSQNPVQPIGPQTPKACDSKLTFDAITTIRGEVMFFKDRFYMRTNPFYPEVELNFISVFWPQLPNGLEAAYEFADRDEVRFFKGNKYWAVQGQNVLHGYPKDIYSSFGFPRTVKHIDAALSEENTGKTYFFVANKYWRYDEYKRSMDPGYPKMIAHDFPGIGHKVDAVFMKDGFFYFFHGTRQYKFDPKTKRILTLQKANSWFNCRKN
Description: Procedure 2: The ability of test compounds to inhibit matrix metalloproteases was investigated using the following procedures.
Collagenase Inhibition Assay:
The potency of compounds to act as inhibitors of collagenase was determined by the method of Cawston and Barrett (Anal. Biochem. 99, 340–345, 1979), hereby incorporated by reference, whereby a 1 mM solution of the inhibitor being tested or dilutions thereof, was incubated at 37° C. for 18 h with collagen and human recombinant collagenase, from synovial fibroblasts cloned, expressed and purified from E. Coli, (buffered with 150 mM Tris, pH 7.6, containing 15 mM calcium chloride, 0.05% Brij 35, 200 mM sodium chloride and 0.02% sodium azide). The collagen was acetylated ^3H type 1 bovine collagen prepared by the method of Cawston and Murphy (methods in Enzymology 80, 711,1981) The samples were centrifuged to sediment undigested collagen and an aliquot of the radioactive supernatant removed for assay on a scintillation counter as a measure of hydrolysis. The collagenase activity in the presence of 1 mM inhibitor, or dilution thereof, was compared to activity in a control devoid of inhibitor and the results reported as that concentration effecting 50% of the collagenase (IC50).

MMP-13 = target: T2, MMP-13 (Homo sapiens, UniProt P45452); assay: General MMP inhibition assay (fluorescence quench); assay type: biochemical; conditions: inhibitor up to 100 uM
T2 construct: purchased Calbiochem
Description: (§1) General MMP Inhibition Assays:
(§2) Inhibition of matrix metalloprotease activity was determined using a fluorescence quench assay with appropriate substrate. For example, MMP activity was determined using MMP activated using trypsin, according to Lark et al, Connective Tissue Res. 25, 52 (1990). The MMP is incubated at room temperature in a microtitre plate in a total volume of 100 ul, containing 0.15 M Tris Cl, 15 mM CaCl2, 0.2 M NaCl, pH 7.6 (assay buffer); inhibitor at concentrations up to 100 uM, with no more than 2% DMSO final concentration, 10 uM substrate (such as SDP-3815-PI for MMP-1, Peptides International). The MMP concentration is <10 nM, and determined empirically with the appropriate substrate to give at least a 20-fold increase in fluorescence emission in 30 min. Fluorescent excitation wavelength was 355 nm, emission wavelength 400–460 nm, and data points are collected to generate slope (change in fluorescence with time). Percent inhibition for each concentration is calculated from the slope at time zero, and IC50 values from the concentration dependence. MMP-1, 2, 3, 7, 9, 13, 14 may all be assayed in the same manner, using commercially available substrates reported to be effective for each enzyme. Enzymes were obtained from Calbiochem and activated using the same trypsin method.

MMP-3 = target: T3, MMP-3 (Homo sapiens, UniProt P08254); assay: General MMP inhibition assay (fluorescence quench); assay type: biochemical; conditions: inhibitor up to 100 uM
T3 construct: purchased Calbiochem
T3 sequence (P08254 100-477, species assumed): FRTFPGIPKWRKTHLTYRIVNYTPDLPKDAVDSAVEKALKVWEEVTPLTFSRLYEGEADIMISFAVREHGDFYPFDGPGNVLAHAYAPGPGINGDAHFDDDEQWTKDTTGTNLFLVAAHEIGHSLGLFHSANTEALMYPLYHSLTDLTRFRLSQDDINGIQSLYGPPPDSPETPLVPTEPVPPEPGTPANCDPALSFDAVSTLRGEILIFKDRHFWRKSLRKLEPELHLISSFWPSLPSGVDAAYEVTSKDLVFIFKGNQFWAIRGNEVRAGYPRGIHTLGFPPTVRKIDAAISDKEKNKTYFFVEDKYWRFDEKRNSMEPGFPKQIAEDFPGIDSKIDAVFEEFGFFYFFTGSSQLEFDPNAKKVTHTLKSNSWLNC
Description: as §1, §2

O=CN(O)[C@H](CS(=O)(=O)Cc1cnc2ccccc2c1)[C@H]1CCCO1 [Example 1]
IC50 [1]: 0.06 µM
IC50 [2]: 100 µM
IC50 (MMP-13): 6 µM
IC50 (MMP-3): > 100 µM
